The test system of test [1] is secreted phospholipase B (PLB activity). The test is described as follows: Radiometric assay, secreted PLB activity. The class given is biochemical, Cryptococcus neoformans H99. A digest of the protocol: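 Secreted enzyme was taken from cell-free supernatant of Cryptococcus isolate H99 cells incubated 24 h at 37° C. Reactions at 37° C, pH 4.0 imidazole acetate, used 800 μM DPPC with [14C]-dipalmitoyl PC and 1 μg protein for 22 min. PLB was measured as radiolabelled PC loss by TLC, with inhibition expressed versus inhibitor-free control; compounds were tested at 25 and 250 μM, then 2.5 and 0.25 μM.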

Test [2] deals with secreted phospholipase B (LPL/LPTA activities). The test is described as follows: Radiometric assay, secreted LPL and LPTA activities (Lyso assay). The class given is biochemical, Cryptococcus neoformans H99. A digest of the protocol: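 Cell-free supernatant from C. neoformans H99 (incubated 24 h at 37° C in imidazole buffer, pH 5.5) with 1 μg total protein and 200 μM lyso-PC incl. 1-[^14C]palmitoyl lyso-PC, 15 s reaction. LPL from substrate loss, LPTA from radiolabelled PC formed, after extraction and TLC; inhibitors tested at 25 and 250 μM, then 2.5 and 0.25 μM, inhibition vs inhibitor-free control, triplicate.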

The subject of test [3] is Candida albicans ATCC 10231. The test is described as follows: Antifungal susceptibility testing, microdilution MIC. The format is cell-based. The following applies: Candida albicans, ATCC10231; Table 7; read-out: MIC (μM) C. alb. (10231). The gist of the method: (§1)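 Standard microdilution method, run in duplicate, using serial dilutions of cationic compounds.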
In general terms: Broth dilution looks for growth in wells or tubes with falling amounts of substance.

For test [4], the system named is Cryptococcus neoformans ATCC 90112. The description is as above. The class given is cell-based. The conditions noted are these: Cryptococcus neoformans, ATCC90112; Table 7; read-out: MIC (μM) Crypto. (ATCC 90112). A digest of the protocol: as §1
In test [5] the test system is MRSA (methicillin resistant S. aureus). The test is described as follows: In vitro antibacterial activity, NCCLS M7-A6. The class given is cell-based. The following applies: Staphylococcus aureus, read-out: MIC MRSA (methicillin resistant S. aureus). How it is done:
(§2) Two bis-cationic compounds were tested for antibacterial activity. The assay used was that published by the National Committee for Clinical Laboratory Standards. 2003. Methods for Dilution Antimicrobial Susceptibility Tests for Bacteria That Grow Aerobically: Approved Standard—Sixth Edition. NCCLS document M7-A6. Villanova, Pa., USA.

In test [6] the test system is Pseudomonas ariginosa 122. The test is described as follows: In vitro antibacterial activity, NCCLS M7-A6. The class given is cell-based. How it is done:
as §2

Test [7] relates to VRE (Vancomycin resistant Enterococcus). The test is described as follows: In vitro antibacterial activity, NCCLS M7-A6. The class given is cell-based. The protocol:
as §2

Test [8] concerns Aspergillus flavus ATCC 204 304. Briefly: In vitro antifungal activity, filamentous fungi, NCCLS M38-A. The class given is cell-based. The following applies: Aspergillus flavus, ATCC204. The source says: (§3) The assay used for filamentous fungi (Aspergillus; Scedosporium; Fusarium) was that published by the National Committee for Clinical Laboratory Standards. 2002. Reference Method for Broth Dilution Antifungal Susceptibility Testing of Filamentous Fungi: Approved Standard. NCCLS document M38-A.Villanova, Pa., USA.

Test [9] has as its system Aspergillus fumigatus ATCC 204 305. The description is as above. The format is cell-based. The conditions noted are these: Aspergillus fumigatus, ATCC204.
Description: as §3

In test [10] the test system is Aspergillus terreus ATCC 03-232-378. The test is described as above. The following applies: Aspergillus terreus, ATCC03. The class given is cell-based.
Description: as §3

For test [11], the system named is Fusarium solani 04-132-4207. The test is described as above. The format is cell-based. The conditions noted are these: Fusarium solani, 041324207.
Description: as §3

Test [12] deals with Scedosporium apiospermum 1-003-056. Described as above. The class given is cell-based. The following applies: Scedosporium apiospermum, 1003056.
Description: as §3

Test [13] has as its system Scedosporium prolificans 1-003-040. The test is described as above. The format is cell-based. The conditions noted are these: Lomentospora prolificans, 1003040.
Description: as §3

Test [14] relates to Candida albicans ATCC 10231. The test is described as follows: In vitro antifungal activity, yeasts, NCCLS M27-A. The format is cell-based. The following applies: Candida albicans, ATCC10231; Table 9. The source says: (§4) The assay used for yeasts (Candida; Cryptococcus) is that of the National Committee for Clinical Laboratory Standards. 1997. Reference Method for Broth Dilution Antifungal Susceptibility Testing of Yeasts: Approved Standard. NCCLS document M27-A.Villanova, Pa., USA as published in Ghannoum, M. A., A. S. Ibrahim, Y. Fu, M. C. Shafiq, J. E Edwards, Jr. and R. S. Criddle. 1992. Susceptibility testing of Cryptococcus neoformans: A microdilution technique. J. Clin. Microbiol. 30:2881-2886.

Test [15] deals with Cryptococcus neoformans ATCC 90112. Briefly: In vitro antifungal activity, yeasts, NCCLS M27-A. The following applies: Cryptococcus neoformans, ATCC90112; Table 9. The class given is cell-based.
Description: as §4

Each structure is given as a SMILES string. Values joined by “and” are separate entries in the source; they are usually repeats but may differ in a detail not shown here. Identical values can stand only once.

Regarding `CCCC[N+](CCCC)(CCCC)CCCCCCCCCCCCCCCC[N+](CCCC)(CCCC)CCCC` [1,16-bis-(tributylammonium)hexadecane], the “PLB assay (% inhibition)” value in [1] (25 μM) is given as 48%; in test [1] (250 μM) it was 62%. Further, the entries for the “Lyso assay (% inhibition) LPL” value in [2] (25 μM) and in [2] (250 μM) were 5% and 10%, respectively. Further, the figures for the “Lyso assay (% inhibition) LPTA” value in test [2] (25 μM) and in test [2] (250 μM) were 15% and 6%, respectively. In addition, the MIC is 5.5 µM in test [3]; 2.2 µM in test [4]; 5 µg/mL and 11 µM in [5]; 106 µg/mL and 160 µM in test [6]; 3.6 µg/mL and 5.5 µM in [7]; 14.6 µg/mL and 22 µM in [8]. Besides, the MIC was 7.3 µg/mL and 11 µM in test [9]; 7.3 µg/mL and 11 µM in test [10]; 14.6 µg/mL and 22 µM in test [11]; 3.6 µg/mL and 5.5 µM in test [12]; 7.3 µg/mL and 11 µM in test [13]; 7.2 µg/mL and 11 µM in test [14]. The MIC in test [15] was 3.6 µg/mL and 5.5 µM.

Broadly, the MIC is the smallest concentration in the dilution series that meets the test's criterion for growth inhibition.

For the origin of these results see patent publication US7947854B2, “Bis-cationic compounds and use thereof” (The University of Sydney, priority 2003, dated 2011).
